Results reported in PubChem BioAssay AID330 (DTP/NCI, 2004).
Values joined by “and” are separate entries in the source; they are usually repeats but may differ in a detail not shown here. Identical values can stand only once. Toxic doses and inconclusive results are not listed.

Tested on: P388 leukemia ip, CD2F1 mice, survival T/C
Experiment: NCI In Vivo Anticancer Drug Screen. Data for tumor model P388 Leukemia (intraperitoneal) in CD2F1 (CDF1) mice
Details: endpoint: median survival time, higher = longer survival
How it was run: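 Mice carrying the transplanted tumor received test compound or vehicle. Survival was recorded in each group, and the value is the treated-group measurement divided by that of the vehicle-treated control group.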

[1] = dose: 100.0 mg/kg/injection, schedule: Q01DX001 (ip), vehicle: saline with Tween-80
[2] = dose: 200.0 mg/kg/injection, schedule: Q01DX001 (ip), vehicle: saline with Tween-80
[3] = dose: 400.0 mg/kg/injection, schedule: Q01DX001 (ip), vehicle: saline with Tween-80
[4] = dose: 50.0 mg/kg/injection, schedule: Q01DX009 (ip), vehicle: saline with Tween-80
[5] = dose: 100.0 mg/kg/injection, schedule: Q01DX009 (ip), vehicle: saline with Tween-80
[6] = dose: 200.0 mg/kg/injection, schedule: Q01DX009 (ip), vehicle: saline with Tween-80
[7] = dose: 100.0 mg/kg/injection, schedule: Q04DX003 (ip), vehicle: saline with Tween-80
[8] = dose: 400.0 mg/kg/injection, schedule: Q01DX009 (ip), vehicle: saline with Tween-80
[9] = dose: 60.0 mg/kg/injection, schedule: Q01DX005 (ip), vehicle: Klucel (hydroxypropylcellulose) (HPC)
[10] = dose: 120.0 mg/kg/injection, schedule: Q01DX005 (ip), vehicle: Klucel (hydroxypropylcellulose) (HPC)
[11] = dose: 240.0 mg/kg/injection, schedule: Q01DX005 (ip), vehicle: Klucel (hydroxypropylcellulose) (HPC)
[12] = dose: 12.5 mg/kg/injection, schedule: Q01DX009 (ip), vehicle: saline with Tween-80
[13] = dose: 25.0 mg/kg/injection, schedule: Q01DX009 (ip), vehicle: saline with Tween-80
[14] = dose: 200.0 mg/kg/injection, schedule: Q04DX003 (ip), vehicle: saline with Tween-80

## C[C@@H]1CC[C@]2(C)CC[C@]3(C)C(=CC[C@@H]4[C@@]5(C)CC[C@@H](OC(=O)c6ccc(O)cc6)C(C)(C)[C@@H]5C[C@H](O)[C@]43C)[C@@H]2[C@H]1C(=O)O
dose: 0.2 mg/kg/injection, schedule: Q01DX009 (ip), vehicle: saline with Tween-80
  T/C: 159 % of control
dose: 12.5 micrograms/kg/injection, schedule: Q01DX009 (ip), vehicle: saline with Tween-80
  T/C: 117 % of control
dose: 25.0 micrograms/kg/injection, schedule: Q01DX009 (ip), vehicle: saline with Tween-80
  T/C: 117 % of control
dose: 50.0 micrograms/kg/injection, schedule: Q01DX009 (ip), vehicle: saline with Tween-80
  T/C: 118 % of control
dose: 400.0 micrograms/kg/injection, schedule: Q01DX009 (ip), vehicle: saline with Tween-80
  T/C: 163 % of control

## Nc1[nH]c(=O)ncc1-c1ccccc1Cl
dose: 60.0 mg/kg/injection, schedule: Q01DX005 (ip), vehicle: saline with Tween-80
  T/C: 98 % of control
dose: 120.0 mg/kg/injection, schedule: Q01DX005 (ip), vehicle: saline with Tween-80
  T/C: 104 % of control
dose: 240.0 mg/kg/injection, schedule: Q01DX005 (ip), vehicle: saline with Tween-80
  T/C: 112 % of control

## CC(=O)OC1C(CO)OC2C1Oc1nc(=N)c(F)cn12 (stereo not given)
dose: 0.39 mg/kg/injection, schedule: Q01DX009 (ip), vehicle: saline with Tween-80
  T/C: 116 % of control
dose: 1.56 mg/kg/injection, schedule: Q01DX009 (ip), vehicle: saline with Tween-80
  T/C: 160 % of control
dose: 3.13 mg/kg/injection, schedule: Q01DX009 (ip), vehicle: saline with Tween-80
  T/C: 91 % of control
dose: 3.13 mg/kg/injection, schedule: Q01DX009 (ip), vehicle: saline
  T/C: 101 % of control
dose: 6.25 mg/kg/injection, schedule: Q01DX009 (ip), vehicle: saline
  T/C: 87 % of control and 88 % of control and 93 % of control
dose: 12.5 mg/kg/injection, schedule: Q01DX009 (ip), vehicle: saline
  T/C: 117 % of control
dose: 50.0 mg/kg/injection, schedule: Q01DX009 (ip), vehicle: saline
  T/C: 161 % of control

## O=C1c2cccc(Cl)c2Cc2c(Cl)cccc21
[1]
  T/C: 105 % of control
[2]
  T/C: 99 % of control
[3]
  T/C: 92 % of control

## CCCC(O)(CCC)/C(C)=N/NC(N)=O
[4]
  T/C: 95 % of control
[5]
  T/C: 97 % of control
[6]
  T/C: 92 % of control

## Nc1nc(=S)c2[nH]c(=S)[nH]c2[nH]1
dose: 25.0 mg/kg/injection, schedule: Q04DX003 (ip), vehicle: saline with Tween-80
  T/C: 118 % of control
dose: 50.0 mg/kg/injection, schedule: Q04DX003 (ip), vehicle: saline with Tween-80
  T/C: 118 % of control
[5]
  T/C: 118 % of control
[7]
  T/C: 118 % of control
dose: 264.0 mg/kg/injection, schedule: Q04DX003 (ip), vehicle: saline with Tween-80
  T/C: 150 % of control
[8]
  T/C: 113 % of control
dose: 600.0 mg/kg/injection, schedule: Q04DX003 (ip), vehicle: saline with Tween-80
  T/C: 150 % of control

## S=C(N/N=C/c1ccncc1)Nc1ccccc1
[9]
  T/C: 99 % of control
[10]
  T/C: 100 % of control
[11]
  T/C: 91 % of control

## O=C1CS(=O)(=O)C(c2cccs2)N1CCN1C(=O)CS(=O)(=O)C1c1cccs1 (stereo not given)
dose: 100.0 mg/kg/injection, schedule: Q04DX002 (ip), vehicle: saline with Tween-80
  T/C: 97 % of control and 94 % of control
dose: 200.0 mg/kg/injection, schedule: Q04DX002 (ip), vehicle: saline with Tween-80
  T/C: 94 % of control and 93 % of control
dose: 400.0 mg/kg/injection, schedule: Q04DX002 (ip), vehicle: saline with Tween-80
  T/C: 92 % of control and 90 % of control

## C/C=C/C(C#N)O[Si](C)(C)C (stereo not given)
dose: 3.75 mg/kg/injection, schedule: Q01DX005 (ip), vehicle: saline
  T/C: 97 % of control
dose: 7.5 mg/kg/injection, schedule: Q01DX005 (ip), vehicle: saline
  T/C: 113 % of control
dose: 15.0 mg/kg/injection, schedule: Q01DX005 (ip), vehicle: saline
  T/C: 99 % of control

## Clc1nc(Cl)nc(-c2cn(-c3ccccc3)c3ccccc23)n1
[12]
  T/C: 100 % of control
[13]
  T/C: 90 % of control
[4]
  T/C: 100 % of control

## Cn1c(=O)c2nnn(-c3ccccc3)c2n(C)c1=O
dose: 45.0 mg/kg/injection, schedule: Q01DX009 (ip), vehicle: saline with Tween-80
  T/C: 100 % of control
dose: 90.0 mg/kg/injection, schedule: Q01DX009 (ip), vehicle: saline with Tween-80
  T/C: 115 % of control
dose: 180.0 mg/kg/injection, schedule: Q01DX009 (ip), vehicle: saline with Tween-80
  T/C: 100 % of control

## Nc1nc(N)nc(NC(=O)COc2cc(Cl)c(Cl)cc2Cl)n1
[5]
  T/C: 95 % of control
[6]
  T/C: 90 % of control
[8]
  T/C: 100 % of control

## Cc1nc(CC#N)c(C(N)=O)c(Nc2ccccc2)n1
[1]
  T/C: 92 % of control
[2]
  T/C: 92 % of control
[3]
  T/C: 111 % of control

## Cc1ccc(N)c(N)c1
[5]
  T/C: 99 % of control
dose: 100.0 mg/kg/injection, schedule: Q01DX009 (ip), vehicle: saline
  T/C: 107 % of control
[6]
  T/C: 109 % of control
[8]
  T/C: 123 % of control

## O=C(CCSSc1ccccn1)ON1C(=O)CCC1=O
dose: 100.0 mg/kg/injection, schedule: Q01DX001 (ip), vehicle: saline
  T/C: 102 % of control
dose: 200.0 mg/kg/injection, schedule: Q01DX001 (ip), vehicle: saline
  T/C: 107 % of control
dose: 400.0 mg/kg/injection, schedule: Q01DX001 (ip), vehicle: saline
  T/C: 100 % of control

## CC1=C([N+](=O)[O-])[C@@H](N2CCOCC2)[C@](C)(N2CCOCC2)S1
dose: 50.0 mg/kg/injection, schedule: Q01DX005 (ip), vehicle: Klucel (hydroxypropylcellulose) (HPC)
  T/C: 105 % of control
dose: 100.0 mg/kg/injection, schedule: Q01DX005 (ip), vehicle: Klucel (hydroxypropylcellulose) (HPC)
  T/C: 105 % of control
dose: 200.0 mg/kg/injection, schedule: Q01DX005 (ip), vehicle: Klucel (hydroxypropylcellulose) (HPC)
  T/C: 105 % of control

## CNC(=O)Nc1cc2ccccc2o1
[7]
  T/C: 110 % of control
[14]
  T/C: 100 % of control
dose: 400.0 mg/kg/injection, schedule: Q04DX003 (ip), vehicle: saline with Tween-80
  T/C: 105 % of control

## Nc1c(-c2noc(=O)[nH]2)ncn1Cc1ccccc1
dose: 100.0 mg/kg/injection, schedule: Q01DX001 (ip), vehicle: Klucel (hydroxypropylcellulose) (HPC)
  T/C: 97 % of control
dose: 200.0 mg/kg/injection, schedule: Q01DX001 (ip), vehicle: Klucel (hydroxypropylcellulose) (HPC)
  T/C: 92 % of control
dose: 400.0 mg/kg/injection, schedule: Q01DX001 (ip), vehicle: Klucel (hydroxypropylcellulose) (HPC)
  T/C: 99 % of control

## CN(C)/N=C1/CC(=O)CC(C)(C)C1
[9]
  T/C: 102 % of control
[10]
  T/C: 100 % of control
[11]
  T/C: 99 % of control

## C/C=C1/CC2C=Nc3cc(O)c(OC)cc3C(=O)N2C1 (stereo not given)
dose: 1.0 mg/kg/injection, schedule: Q01DX005 (ip), vehicle: saline + alcohol
  T/C: 157 % of control
dose: 50.0 micrograms/kg/injection, schedule: Q01DX005 (ip), vehicle: saline + alcohol
  T/C: 98 % of control
dose: 100.0 micrograms/kg/injection, schedule: Q01DX005 (ip), vehicle: saline + alcohol
  T/C: 110 % of control
dose: 200.0 micrograms/kg/injection, schedule: Q01DX005 (ip), vehicle: saline + alcohol
  T/C: 116 % of control
dose: 400.0 micrograms/kg/injection, schedule: Q01DX005 (ip), vehicle: saline + alcohol
  T/C: 120 % of control

## Cc1c(C(=O)NCCN(C)C)n(C)c(=O)c2ccccc12
dose: 60.0 mg/kg/injection, schedule: Q01DX005 (ip), vehicle: saline
  T/C: 98 % of control
dose: 120.0 mg/kg/injection, schedule: Q01DX005 (ip), vehicle: saline
  T/C: 93 % of control
dose: 240.0 mg/kg/injection, schedule: Q01DX005 (ip), vehicle: saline
  T/C: 94 % of control

## Oc1ccc(CCNCc2ccc3c(c2)OCO3)cc1
[7]
  T/C: 99 % of control
[14]
  T/C: 95 % of control

## [Cl][Pt+2][Cl].[NH-]c1ccc(Cl)cc1[NH-]
dose: 6.25 mg/kg/injection, schedule: Q04DX002 (ip), vehicle: saline with Tween-80
  T/C: 150 % of control
dose: 12.5 mg/kg/injection, schedule: Q04DX002 (ip), vehicle: saline with Tween-80
  T/C: 157 % of control
dose: 25.0 mg/kg/injection, schedule: Q04DX002 (ip), vehicle: saline with Tween-80
  T/C: 168 % of control

## C[N+]1=C(/C=C/Nc2ccc3ccc4cccc5ccc2c3c45)C(C)(C)c2ccccc21
dose: 6.25 mg/kg/injection, schedule: Q01DX009 (ip), vehicle: saline with Tween-80
  T/C: 108 % of control
[12]
  T/C: 100 % of control
[13]
  T/C: 105 % of control
[4]
  T/C: 89 % of control
